According to ChEMBL document CHEMBL1134973, “Modification of the pyridine moiety of non-peptidyl indole GnRH receptor antagonists” (Bioorg Med Chem Lett, 2002):

Columns and labels:
[1] = target: T1, Gonadotropin-releasing hormone receptor (Homo sapiens, UniProt P30968); test: Concentration required for the inhibition of phosphatidyl inositol hydrolysis in chinese hamster ovary cells expressing human GnRH receptor (Gonadotropin Release Hormone receptor); format: functional, cell-based
T1 sequence (P30968 whole entry): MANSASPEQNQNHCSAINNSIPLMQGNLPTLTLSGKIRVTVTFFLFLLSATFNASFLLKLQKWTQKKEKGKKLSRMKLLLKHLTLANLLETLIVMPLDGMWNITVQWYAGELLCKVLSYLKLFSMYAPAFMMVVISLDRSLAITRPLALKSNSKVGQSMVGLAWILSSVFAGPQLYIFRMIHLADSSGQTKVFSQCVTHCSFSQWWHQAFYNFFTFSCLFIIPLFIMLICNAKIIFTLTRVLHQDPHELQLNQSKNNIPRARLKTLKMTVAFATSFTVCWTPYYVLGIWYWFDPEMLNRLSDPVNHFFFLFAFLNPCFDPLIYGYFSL

[2] = target: T1, Gonadotropin-releasing hormone receptor; test: Concentration required for the inhibition of I-125 labeled buserelin binding to the human Gonadotropin-releasing hormone receptor
[3] = Oral bioavailability in dog; format: ADME, organism-based, Canis lupus familiaris; conditions: in vivo
[4] = Half-life of compound was determined in dogs; format: ADME, organism-based, Canis lupus familiaris; conditions: dog, in vivo
[5] = Oral bioavailability of compound was determined in rats; format: ADME, organism-based; conditions: rat, in vivo
[6] = Half-life of compound was determined in rats; format: ADME, organism-based; conditions: rat, in vivo
[7] = Half-life of compound in plasma of dog was determined; format: ADME, organism-based, Canis lupus familiaris

SMILES	IC50 [1] [nM]	IC50 [2] [nM]	bioavailability [3] [%]	half-life [4] [h]	bioavailability [5] [%]	half-life [6] [h]	half-life [7] [h]
Cc1cc(C)cc(-c2[nH]c3ccc(C(C)(C)C(=O)N4CC5CCC4CC5)cc3c2[C@H](C)CNCCc2cc[n+]([O-])cc2C)c1	26	0.8	–	–	–	–	–
Cc1cc(C)cc(-c2[nH]c3ccc(C(C)(C)C(=O)N4CC5CCC4CC5)cc3c2[C@H](C)CNCCc2cc(C)nc(C)c2)c1	24	0.4	–	–	–	–	–
Cc1cc(C)cc(-c2[nH]c3ccc(C(C)(C)C(=O)N4CC5CCC4CC5)cc3c2[C@H](C)CNCCc2ccnc(C(=O)O)c2)c1	371	8.2	–	–	–	–	–
CC(=O)OCc1cc(CCNC[C@@H](C)c2c(-c3cc(C)cc(C)c3)[nH]c3ccc(C(C)(C)C(=O)N4CC5CCC4CC5)cc23)ccn1	22	0.4	–	–	–	–	–
CCCc1cc(CCNC[C@@H](C)c2c(-c3cc(C)cc(C)c3)[nH]c3ccc(C(C)(C)C(=O)N4CC5CCC4CC5)cc23)ccn1	62	4.6	–	–	–	–	–
Cc1cc(C)cc(-c2[nH]c3ccc(C(C)(C)C(=O)N4CC5CCC4CC5)cc3c2[C@H](C)CNCCc2ccnc(C(C)(C)O)c2)c1	106	0.7	–	–	–	–	–
COC(=O)c1cc(CCNC[C@@H](C)c2c(-c3cc(C)cc(C)c3)[nH]c3ccc(C(C)(C)C(=O)N4CC5CCC4CC5)cc23)ccn1	25	0.9	–	–	–	–	–
Cc1cc(C)cc(-c2[nH]c3ccc(C(C)(C)C(=O)N4CC5CCC4CC5)cc3c2[C@H](C)CNCCc2ccncc2C)c1	48	0.8	–	–	–	–	–
COCc1cc(CCNC[C@@H](C)c2c(-c3cc(C)cc(C)c3)[nH]c3ccc(C(C)(C)C(=O)N4CC5CCC4CC5)cc23)ccn1	55	0.7	–	–	–	–	–

These reach a lower IC50 [1]. Values come first.

IC50 [1] [nM]	IC50 [2] [nM]	bioavailability [3] [%]	half-life [4] [h]	bioavailability [5] [%]	half-life [6] [h]	half-life [7] [h]	SMILES
6.4	0.3	14	–	–	–	–	Cc1cc(C)cc(-c2[nH]c3ccc(C(C)(C)C(=O)N4CC5CCC4CC5)cc3c2[C@H](C)CNCCc2cc[n+]([O-])cc2)c1
20	0.6	–	–	–	–	–	Cc1cc(C)cc(-c2[nH]c3ccc(C(C)(C)C(=O)N4CC5CCC4CC5)cc3c2[C@H](C)CNCCc2ccnc(C(C)O)c2)c1 (stereo partly specified)
8.7	0.9	36	–	–	–	–	Cc1cc(C)cc(-c2[nH]c3ccc(C(C)(C)C(=O)N4CC5CCC4CC5)cc3c2[C@H](C)CNCCc2ccnc(C)c2)c1
11	0.7	–	–	–	–	–	Cc1cc(C)cc(-c2[nH]c3ccc(C(C)(C)C(=O)N4CC5CCC4CC5)cc3c2[C@H](C)CNCCc2ccnc(C#N)c2)c1
5.9	0.3	25	5	23	2	–	Cc1cc(C)cc(-c2[nH]c3ccc(C(C)(C)C(=O)N4CC5CCC4CC5)cc3c2[C@H](C)CNCCc2cc[n+]([O-])c(C)c2)c1
7.5	0.4	15	–	–	–	2	Cc1cc(C)cc(-c2[nH]c3ccc(C(C)(C)C(=O)N4CC5CCC4CC5)cc3c2[C@H](C)CNCCc2ccnc(CO)c2)c1
12	0.6	–	–	–	–	–	CC(=O)c1cc(CCNC[C@@H](C)c2c(-c3cc(C)cc(C)c3)[nH]c3ccc(C(C)(C)C(=O)N4CC5CCC4CC5)cc23)ccn1
10	0.5	29	7	–	–	–	Cc1cc(C)cc(-c2[nH]c3ccc(C(C)(C)C(=O)N4CC5CCC4CC5)cc3c2[C@H](C)CNCCc2cc(C)[n+]([O-])c(C)c2)c1
19	3.3	–	–	–	–	–	CCc1cc(CCNC[C@@H](C)c2c(-c3cc(C)cc(C)c3)[nH]c3ccc(C(C)(C)C(=O)N4CC5CCC4CC5)cc23)ccn1
